Experiments:
DIPGX29 [1] = H3.3 K27M diffuse intrinsic pontine glioma line; assay: EC50 (inflection of fitted growth-inhibition curve) (log10 M)
Method in brief: (§1)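 EC50 and maximal response (yFin) were derived from the lowest-AICc fit, either three- or four-parameter log-logistic. The data were pooled CellTiter-Glo luminescence values, log2-transformed and normalised per plate to % activity between negative (solvent) and positive controls. Patient-derived pHGG/DIPG cell lines and astrocyte controls on 1% Geltrex-coated 384-well plates received a 10-point threefold dilution series (mean top concentration 35 μM) by pin tool, in triplicate, for 7 days (iAstro 3 days) at 37 °C, 5% CO2.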

DIPGX9 [2] = diffuse intrinsic pontine glioma line; assay: as above
Method in brief: as §1

HABS [3] = astrocyte control; assay: as above
Method in brief: as §1

HGGX2 [4] = paediatric high-grade glioma line; assay: as above
Method in brief: as §1

HGGX39 [5] = paediatric high-grade glioma line; assay: as above
Method in brief: as §1

HGGX42 [6] = H3.3 G34R paediatric high-grade glioma line; assay: as above
Method in brief: as §1

HGGX6 [7] = H3.3 G34R paediatric high-grade glioma line; assay: as above
Method in brief: as §1

SUDIPGXIX [8] = diffuse intrinsic pontine glioma line; assay: as above
Method in brief: as §1

SUDIPGXVII [9] = diffuse intrinsic pontine glioma line; assay: as above
Method in brief: as §1

SUDIPGXXI [10] = diffuse intrinsic pontine glioma line; assay: as above
Method in brief: as §1

iAstro [11] = astrocyte control; assay: as above
Method in brief: as §1

DIPGX29 [12] = assay: maximal growth inhibition (yFin) relative to DMSO / staurosporine; higher = more efficacious
Method in brief: as §1

DIPGX9 [13] = assay: as above
Method in brief: as §1

HABS [14] = assay: as above
Method in brief: as §1

HGGX2 [15] = assay: as above
Method in brief: as §1

HGGX39 [16] = assay: as above
Method in brief: as §1

HGGX42 [17] = assay: as above
Method in brief: as §1

HGGX6 [18] = assay: as above
Method in brief: as §1

SUDIPGXIX [19] = assay: as above
Method in brief: as §1

SUDIPGXVII [20] = assay: as above
Method in brief: as §1

SUDIPGXXI [21] = assay: as above
Method in brief: as §1

iAstro [22] = assay: as above
Method in brief: as §1

DIPGX29 [23] = assay: area under dose-response curve of % growth inhibition (log2 RLU vs DMSO / staurosporine), 1e-11 to 1e-4 M (% x log10 M); higher = more growth inhibition
Method in brief: (§2)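 Cells were exposed in triplicate for 7 days (iAstro: 3 days) at 37 °C, 5% CO2 to a 10-point series of threefold dilutions with a mean top concentration of 35 μM. These were patient-derived pHGG/DIPG lines plus astrocytes, grown on 384-well plates coated with 1% Geltrex. Readout was CellTiter-Glo luminescence, log2-transformed and set per plate to % activity between solvent and positive controls, from which area under the curve was derived by trapezoid rule on a log-logistic fit or, failing that, a smoothing spline.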

DIPGX37 [24] = H3.3 K27M diffuse intrinsic pontine glioma line; assay: as above
Method in brief: as §2

DIPGX7 [25] = H3.3 K27M diffuse intrinsic pontine glioma line; assay: as above
Method in brief: as §2

DIPGX9 [26] = assay: as above
Method in brief: as §2

HABS [27] = assay: as above
Method in brief: as §2

HGGX2 [28] = assay: as above
Method in brief: as §2

HGGX39 [29] = assay: as above
Method in brief: as §2

HGGX42 [30] = assay: as above
Method in brief: as §2

HGGX6 [31] = assay: as above
Method in brief: as §2

SUDIPGIV [32] = diffuse intrinsic pontine glioma line; assay: as above
Method in brief: as §2

SUDIPGVI = diffuse intrinsic pontine glioma line; assay: as above
Method in brief: as §2

SUDIPGXIII = diffuse intrinsic pontine glioma line; assay: as above
Method in brief: as §2

SUDIPGXIX [33] = assay: as above
Method in brief: as §2

SUDIPGXVII [34] = assay: as above
Method in brief: as §2

SUDIPGXXI [35] = assay: as above
Method in brief: as §2

iAstro [36] = assay: as above
Method in brief: as §2

DIPGX37 [37] = assay: EC50 (inflection of fitted growth-inhibition curve) (log10 M)
Method in brief: as §1

DIPGX7 [38] = assay: as above
Method in brief: as §1

SUDIPGIV [39] = assay: as above
Method in brief: as §1

DIPGX37 [40] = assay: maximal growth inhibition (yFin) relative to DMSO / staurosporine; higher = more efficacious
Method in brief: as §1

DIPGX7 [41] = assay: as above
Method in brief: as §1

SUDIPGIV [42] = assay: as above
Method in brief: as §1

Compound | EC50 (log10 M) (DIPGX29 [1]) | EC50 (log10 M) (DIPGX9 [2]) | EC50 (log10 M) (SUDIPGXXI [10]) | maximal growth inhibition (SUDIPGXXI [21]) [%] | area under dose-response curve (DIPGX29 [23]) | area under dose-response curve (DIPGX37 [24]) | area under dose-response curve (DIPGX7 [25]) | area under dose-response curve (DIPGX9 [26]) | area under dose-response curve (HABS [27]) | area under dose-response curve (HGGX2 [28]) | area under dose-response curve (HGGX39 [29]) | area under dose-response curve (HGGX42 [30]) | area under dose-response curve (HGGX6 [31]) | area under dose-response curve (SUDIPGIV [32]) | area under dose-response curve (SUDIPGVI) | area under dose-response curve (SUDIPGXIII) | area under dose-response curve (SUDIPGXIX [33]) | area under dose-response curve (SUDIPGXVII [34]) | area under dose-response curve (SUDIPGXXI [35]) | area under dose-response curve (iAstro [36]) | other results
C#Cc1cccc(Nc2ncnc3cc(OCCOC)c(OCCOC)cc23)c1 [ERLOTINIB] | -4.82 | -5.14 | -5.65 | 103 | 28.1 | 51.3 | 44.7 | 68.4 | 86.4 | 37.1 | 34.2 | 50 | 22.9 | 53 | 33.8 | 9.16 | 78.6 | 44.5 | 178 | 29.7 | EC50 (log10 M) (HABS [3]): -4.84; EC50 (log10 M) (HGGX2 [4]): -5.13; EC50 (log10 M) (HGGX39 [5]): -4.77; EC50 (log10 M) (HGGX42 [6]): -5.09; EC50 (log10 M) (HGGX6 [7]): -4.65; EC50 (log10 M) (SUDIPGXIX [8]): -5.24; EC50 (log10 M) (SUDIPGXVII [9]): -5.32; EC50 (log10 M) (iAstro [11]): -5.17; maximal growth inhibition (DIPGX29 [12]): 25.7%; maximal growth inhibition (DIPGX9 [13]): 53.6%; maximal growth inhibition (HABS [14]): 80.2%; maximal growth inhibition (HGGX2 [15]): 32.7%; maximal growth inhibition (HGGX39 [16]): 40.4%; maximal growth inhibition (HGGX42 [17]): 31.5%; maximal growth inhibition (HGGX6 [18]): 30.5%; maximal growth inhibition (SUDIPGXIX [19]): 62.6%; maximal growth inhibition (SUDIPGXVII [20]): 25.8%; maximal growth inhibition (iAstro [22]): 27.5%
CC(C(O)c1ccc(O)cc1)N1CCC(Cc2ccccc2)CC1 (stereo not drawn) [IFENPRODIL] | -4.85 | – | -4.85 | 75.3 | 39.3 | 48.4 | 57.3 | 18.8 | 0.152 | 8.88 | 44.1 | 66.8 | 25.9 | 29.8 | 18.5 | 27.3 | 3.16 | 17.3 | 85.1 | 13.3 | EC50 (log10 M) (DIPGX37 [37]): -4.82; EC50 (log10 M) (DIPGX7 [38]): -4.83; EC50 (log10 M) (HGGX39 [5]): -4.86; EC50 (log10 M) (HGGX42 [6]): -5.06; EC50 (log10 M) (HGGX6 [7]): -4.95; EC50 (log10 M) (SUDIPGIV [39]): -4.66; maximal growth inhibition (DIPGX29 [12]): 29.5%; maximal growth inhibition (DIPGX37 [40]): 59.3%; maximal growth inhibition (DIPGX7 [41]): 45.7%; maximal growth inhibition (HGGX39 [16]): 36.6%; maximal growth inhibition (HGGX42 [17]): 61.8%; maximal growth inhibition (HGGX6 [18]): 20.6%; maximal growth inhibition (SUDIPGIV [42]): 45.1%
N[C@H]1C[C@@H]1c1ccc(-c2cccc(O)c2)cc1 [OG-L002] | – | – | – | – | 67.6 | 78.6 | 138 | 24.4 | 7.06 | 81.6 | 78.2 | 100 | 51.3 | 174 | 3.43 | 0 | 222 | 103 | 7.31 | 35.4 | EC50 (log10 M) (SUDIPGXIX [8]): -6.55; maximal growth inhibition (SUDIPGXIX [19]): 87.2%
CC(C)N(CCCNC(=O)Nc1ccc(C(C)(C)C)cc1)C[C@H]1O[C@@H](n2cc(Br)c3c(N)ncnc32)[C@H](O)[C@@H]1O [SGC0946] | -4.49 | -4.79 | -4.77 | 107 | 58.4 | 56.4 | 54 | 24.1 | 8.16 | 58.5 | 14.8 | 66.7 | 33.2 | 11.6 | 20 | 40.5 | 57.8 | 27.7 | 82.6 | 21.5 | EC50 (log10 M) (DIPGX37 [37]): -4.52; EC50 (log10 M) (DIPGX7 [38]): -4.86; EC50 (log10 M) (HGGX2 [4]): -4.58; EC50 (log10 M) (HGGX42 [6]): -4.53; EC50 (log10 M) (HGGX6 [7]): -4.77; EC50 (log10 M) (SUDIPGXIX [8]): -4.54; EC50 (log10 M) (iAstro [11]): -4.87; maximal growth inhibition (DIPGX29 [12]): 100%; maximal growth inhibition (DIPGX37 [40]): 65.1%; maximal growth inhibition (DIPGX7 [41]): 35.5%; maximal growth inhibition (DIPGX9 [13]): 30.4%; maximal growth inhibition (HGGX2 [15]): 100%; maximal growth inhibition (HGGX42 [17]): 102%; maximal growth inhibition (HGGX6 [18]): 43%; maximal growth inhibition (SUDIPGXIX [19]): 107%; maximal growth inhibition (iAstro [22]): 25.3%
CC1=C(/C=C/C(C)=C/C=C/C(C)=C/C(=O)O)C(C)(C)CCC1 [TRETINON] | – | – | -7.13 | 94.3 | 40.4 | 46.7 | 16.1 | 97.5 | 0 | 71.1 | 42.5 | 28.5 | 27.5 | 44.1 | 22 | 0 | 14.9 | 19.9 | 296 | 14.6 | EC50 (log10 M) (HGGX2 [4]): -6.92; maximal growth inhibition (HGGX2 [15]): 24.3%
CN1CCc2c(c3ccccc3n2Cc2ccc(C(=O)NO)cc2)C1 [TUBASTATIN A] | – | -4.76 | -4.83 | 99.5 | 16.3 | 24.4 | 5.69 | 32.9 | 14.5 | 21.2 | 24.6 | 9.08 | 6.92 | 24.1 | 0 | 6.63 | 24.1 | 17.2 | 82.4 | 37.8 | EC50 (log10 M) (SUDIPGIV [39]): -4.8; EC50 (log10 M) (iAstro [11]): -4.7; maximal growth inhibition (DIPGX9 [13]): 29.3%; maximal growth inhibition (SUDIPGIV [42]): 30.1%; maximal growth inhibition (iAstro [22]): 54%
